# Results reported in patent US20220354825A1, “PHARMACEUTICAL COMPOSITION FOR PREVENTION OR TREATMENT OF INFLAMMATORY DISEASES COMPRISING NAPHTHOQUINONE DERIVATIVE” (LMITO THERAPEUTICS INC., priority 2019, published 2022).
# How the values were obtained:
# [1] = molecular target: NQO1 (Homo sapiens, UniProt P15559); experiment: In vitro NQO1 enzyme activity assay (cytochrome C reduction); assay type: biochemical; settings: NQO1 2 ng
# Experimental: In order to evaluate the enzymatic activities of compounds on NQO1, the experiments were performed as follows:
# A compound to measure NQO1 enzyme activity was dissolved in DMSO to prepare a 10 mM stock solution, which was then diluted with DMSO to prepare a working solution at a concentration of 250 μM. For an enzyme reaction solution, 50 μL of 1.54 mM cytochrome C solution was added to 900 μL of 50 mM Tris-HCl (pH 7.5) solution containing 0.14% BSA, and then the prepared working solution at 250 μM was added. After adding 20 μL of 100 ng/ml NQO1 protein, […] solution was added so as to adjust the total volume to 1 mL, and then the change of absorbance was measured at 550 nm for 10 minutes. The change of absorbance was measured at 550 nm for 10 minutes using 1 mL cuvette. The reaction rate was observed through the increase in absorbance as cytochrome C was reduced at 550 nm for 10 minutes, to obtain an absorbance value, and the activity for NQO1 was measured as the reduced amount of cytochrome C (nmol reduced cytochrome C/min/μg NQO1 protein).
# Absorption coefficient of Cytochrome C: 21.1 (μmol/mL)-1 cm^−1
# Equipment=Cary 100 UV-Vis Spectrophotometer
# [2] = system: primary bone marrow-derived macrophages (BMDMs); experiment: NAD+ measurement in macrophages after LPS/ATP; assay type: cell-based, C57BL/6 mouse; settings: LPS/ATP + 1, 5, 10 μM compound
# Experimental: (§1) The primary bone marrow-derived macrophages (BMDMs) isolated from C57BL/6 mouse were incubated in DMEM medium involving macrophage colony-stimulating factor (M-CSF; R&D Systems, 416-ML) during 3 to 5 days. NAD^+ production and NAD^+/NADH ratio were measured in isolated BMDMs through using NAD/NADH Assay Kit(ab65348) supplied by Abcam company. All assays were performed according to the manufacturer's product manual.
# FIGS. 1 to 5 show NAD^+ changes in the macrophage when treated with compounds 6, 16, 17, 22 and 27 respectively (in order from left in the figure: Untreatment, LPS/ATP, LPS/ATP+1 μM compound, LPS/ATP+5 μM compound, and LPS/ATP+10 μM compound).
# [3] = system: primary bone marrow-derived macrophages (BMDMs); experiment: NAD+/NADH measurement in macrophages after LPS/ATP; assay type: cell-based, C57BL/6 mouse; settings: LPS/ATP + 1, 5, 10 μM compound
# Experimental: as §1, with “ratio was” for “ratio were”
# FIGS. 6 to 10 show NAD^+/NADH ratio changes in the macrophage when treated with compounds 6, 16, 17, and 27 respectively (in order from left in the figure: Untreatment, LPS/ATP, LPS/ATP+1 μM compound, LPS/ATP+5 μM compound, and LPS/ATP+10 μM).
# [4] = system: primary bone marrow-derived macrophages (BMDMs); experiment: OCR (oxygen consumption rate) measurement, Seahorse XF24; assay type: cell-based, C57BL/6 mouse; settings: macrophages after treatment of LPS and ATP
# Experimental: The primary bone marrow-derived macrophages (BMDMs) isolated from C57BL/6 mouse were incubated in DMEM medium involving macrophage colony-stimulating factor (M-CSF; R&D Systems, 416-ML) during 3 to 5 days. OCR was measured using Seahorse XF24 Extracellular Flux Analyzer in isolated bone marrow-derived macrophages.
# [5] = system: DSS-induced acute colitis mouse model; experiment: Efficacy in ulcerative colitis mouse model (DSS-induced acute colitis); assay type: in vivo, C57BL/6 female mouse; settings: 5% DSS for 6 days
# Experimental: DSS-induced acute colitis mouse model was prepared using 6-week-old C57BL/6 female mouse in the following method from Opal S M et al., Jama., 309(11):1154-1162(2013) and Hotchkiss R S et al., Journal of immunology., 176(9):5471-5477(2006).
# The clinical score in colitis were measured daily for body weight, rectal bleeding, total bleeding loss, and fecal concentration during colitis induction.
# For immunohistochemistry of tissue section, mouse spleen, lung and colon were fixed using 10% formalin and embedded in paraffin. Paraffin sections were cut to a thickness of 4 μm, and H&E(hematoxylin and eosin) staining was performed. The histopathological score was measured in accordance with the criteria described in Osuchowski M F, et al., Journal of Immunology, 177(3):1967-74(2006); and Liu W, et al., Cell Research, 25(6): 691-706(2015).
# The sandwich ELISAs and MPO assay were performed according to conventional methods in this field. TNF-α, IL-6, IL-1β, IL-18 ELISA(sandwich ELISAs) were performed using BD OptEIA ELISA Kit and MPO assay was performed using MPO Activity assay kit(ab105136) of Abcam company.
# The data obtained from independent experiment (means±SD) was analyzed by using two-tailed Student's t-test. The differences were considered significant in p<0.05. For survival comparison, the results were graphically described and analyzed according to kaplan-Meier survival analysis, that is, the product-limit method, using log-rank(Mantel-Cox) tests (Prism, version 5.0, GraphPad Software).
# [6] = system: primary bone marrow-derived macrophages (BMDMs); experiment: Mitochondrial reactive oxygen species measurement (MitoSox, FACS); assay type: cell-based, C57BL/6 mouse; settings: LPS/ATP + 1, 5, 10 μM compound
# Experimental: The primary bone marrow-derived macrophages (BMDMs) isolated from C57BL/6 mouse were incubated in DMEM medium involving macrophage colony-stimulating factor (M-CSF; R&D Systems, 416-ML) during 3 to 5 days. Isolated BMDMs were stained by 1 μM MitoSox (Molecular Probes M36008) for 15 min. After washing the cells into PBS and collecting the cells, mitochondrial reactive oxygen species was measured by FACS.
# FIGS. 11 and 12 show mitochondrial reactive oxygen species changes in the macrophage when treated with compounds 6 and 27, respectively (in order from left in the figure: Untreatment, LPS/ATP, LPS/ATP+1 μM compound, LPS/ATP+5 μM compound, and LPS/ATP+10 μM compound).
# [7] = system: primary bone marrow-derived macrophages (BMDMs); experiment: ATP measurement in LPS-activated macrophages; assay type: cell-based, C57BL/6 mouse; settings: LPS + 1, 5, 10 μM compound
# Experimental: The primary bone marrow-derived macrophages (BMDMs) isolated from C57BL/6 mouse were incubated in DMEM medium involving macrophage colony-stimulating factor (M-CSF; R&D Systems, 416-ML) during 3 to 5 days. ATP content in the cell was measured through using ATP colorimetric/fluorometric kit after activation of macrophages by treatment of 100 ng/mL LPS in DMEM medium including […]. All assays were performed according to the manufacturer's product manual.
# FIGS. 13 to 17 show the measurement of ATP amounts in the macrophage when treated with Compounds 6, 16, 17, 22 and 27 respectively (in order from left in the figure: Untreatment, LPS/ATP, LPS/ATP+1 μM compound, LPS/ATP+5 μM compound, and LPS/ATP+10 μM compound).
# [8] = colon tissue homogenate, treated during 20 days
# [9] = treated during 10 days, vs non-treated mouse
# Chain of NQO1 (P15559 whole entry, species assumed): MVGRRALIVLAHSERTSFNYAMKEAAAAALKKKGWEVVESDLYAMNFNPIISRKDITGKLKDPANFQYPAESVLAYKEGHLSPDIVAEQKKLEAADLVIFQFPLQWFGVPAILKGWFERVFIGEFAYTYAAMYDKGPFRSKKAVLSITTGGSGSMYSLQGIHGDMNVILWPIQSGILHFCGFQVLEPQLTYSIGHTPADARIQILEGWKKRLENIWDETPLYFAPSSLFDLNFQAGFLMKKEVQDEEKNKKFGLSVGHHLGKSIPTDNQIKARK
compound,measurement,setting,value
O=C1C(=O)c2c(n(-c3ccccc3)[nH]c2=O)-c2ccccc21 [Compound 1],NQO1 Activity,[1]; Compound 5 μM,180 nmol of reduced Cytochrome C/min/μg NQO1 Protein
CC(C)n1c(=O)c2c(n1C)-c1ccccc1C(=O)C2=O [Compound 3],NQO1 Activity,[1]; Compound 5 μM,3066 nmol of reduced Cytochrome C/min/μg NQO1 Protein
CC(C)COc1nn(-c2ccccc2)c2c1C(=O)C(=O)c1ccccc1-2 [Compound 10],NQO1 Activity,[1]; Compound 0.2 μM,3455 nmol of reduced Cytochrome C/min/μg NQO1 Protein
CCOc1nn(-c2ccccc2)c2c1C(=O)C(=O)c1ccccc1-2 [Compound 8],NQO1 Activity,[1]; Compound 0.2 μM,3768 nmol of reduced Cytochrome C/min/μg NQO1 Protein
COc1nn(C(C)C)c2c1C(=O)C(=O)c1ccccc1-2 [Compound 17],NQO1 Activity,[1]; Compound 0.2 μM,5843 nmol of reduced Cytochrome C/min/μg NQO1 Protein
same,NAD+ production,[2],increased in dose-dependent manner
same,NAD+/NADH ratio,[3],increased in dose-dependent manner
CC(C)c1nc2c([nH]1)C(=O)C(=O)c1ccccc1-2 [Compound 27],NQO1 Activity,[1]; Compound 0.2 μM,2269 nmol of reduced Cytochrome C/min/μg NQO1 Protein
same,overall mitochondrial OCR,[4],increased
same,MPO activity,[5]; [8],decreased
same,"cytokine expressions (TNF-α, IL-6, IL-1β and IL-18, ELISA)",[5]; [8],decreased
same,expressions of sirtuin 1 and sirtuin 7,[5]; [8],significantly increased
same,"histological finding of colon tissue (immunohistochemistry, histological score, H&E)","[5]; treated during 7 days, vs non-treated colon tissue",significantly improved than non-treated colon tissue
same,"colitis clinic scores (body weight, stool consistency, bleeding combined)",[5]; [9],significantly ameliorated compared with non-treated mouse
same,degree of body weight loss,[5]; [9],significantly slower than non-treated mouse
same,survival rates,"[5]; treated during 20 days, vs non-treated mouse",higher than non-treated mouse
same,mitochondrial reactive oxygen species amounts,[6],decreased in dose-dependent manner
same,ATP amounts,[7],increased in dose-dependent manner
same,NAD+ production,[2],increased in dose-dependent manner
same,NAD+/NADH ratio,[3],increased in dose-dependent manner
COc1cn(-c2ccccc2)c2c1C(=O)C(=O)c1cc([N+](=O)[O-])ccc1-2 [Compound 23],NQO1 Activity,[1]; Compound 0.2 μM,456 nmol of reduced Cytochrome C/min/μg NQO1 Protein
Cn1c(=O)c2c(n1-c1ccccc1)-c1ccccc1C(=O)C2=O [Compound 5],NQO1 Activity,[1]; Compound 5 μM,2602 nmol of reduced Cytochrome C/min/μg NQO1 Protein
COc1cn(-c2ccccc2)c2c1C(=O)C(=O)c1cc(Br)ccc1-2 [Compound 25],NQO1 Activity,[1]; Compound 0.2 μM,1676 nmol of reduced Cytochrome C/min/μg NQO1 Protein
Cn1c(=O)c2c(n1-c1ccccc1)-c1ccc(F)cc1C(=O)C2=O [Compound 21],NQO1 Activity,[1]; Compound 0.2 μM,1426 nmol of reduced Cytochrome C/min/μg NQO1 Protein
COc1nn(-c2ccc(C(F)(F)F)cc2)c2c1C(=O)C(=O)c1ccccc1-2 [Compound 18],NQO1 Activity,[1]; Compound 0.2 μM,4232 nmol of reduced Cytochrome C/min/μg NQO1 Protein
COc1nn(-c2ccc(F)cc2)c2c1C(=O)C(=O)c1ccccc1-2 [Compound 19],NQO1 Activity,[1]; Compound 0.2 μM,4303 nmol of reduced Cytochrome C/min/μg NQO1 Protein
CC(C)n1c2c(c(=O)n1C)C(=O)C(=O)c1ccccc1-2 [Compound 16],NQO1 Activity,[1]; Compound 0.2 μM,4441 nmol of reduced Cytochrome C/min/μg NQO1 Protein
same,NAD+ production,[2],increased in dose-dependent manner
same,NAD+/NADH ratio,[3],increased in dose-dependent manner
Cn1c2c(c(=O)n1-c1ccccc1)C(=O)C(=O)c1ccccc1-2 [Compound 20],NQO1 Activity,[1]; Compound 0.2 μM,568 nmol of reduced Cytochrome C/min/μg NQO1 Protein
COc1nn(-c2ccccc2)c2c1C(=O)C(=O)c1cc(N)ccc1-2 [Compound 24],NQO1 Activity,[1]; Compound 0.2 μM,4336 nmol of reduced Cytochrome C/min/μg NQO1 Protein
CC(C)CCn1c(=O)c2c(n1-c1ccccc1)-c1ccccc1C(=O)C2=O [Compound 11],NQO1 Activity,[1]; Compound 0.2 μM,2839 nmol of reduced Cytochrome C/min/μg NQO1 Protein
CC(C)Oc1nn(-c2ccccc2)c2c1C(=O)C(=O)c1ccccc1-2 [Compound 2],NQO1 Activity,[1]; Compound 0.2 μM,3531 nmol of reduced Cytochrome C/min/μg NQO1 Protein
CC(C)Cn1c(=O)c2c(n1-c1ccccc1)-c1ccccc1C(=O)C2=O [Compound 9],NQO1 Activity,[1]; Compound 0.2 μM,2474 nmol of reduced Cytochrome C/min/μg NQO1 Protein
CC(C)CCOc1nn(-c2ccccc2)c2c1C(=O)C(=O)c1ccccc1-2 [Compound 12],NQO1 Activity,[1]; Compound 0.2 μM,2981 nmol of reduced Cytochrome C/min/μg NQO1 Protein
COc1nn(-c2ccccc2)c2c1C(=O)C(=O)c1cc(F)ccc1-2 [Compound 22],NQO1 Activity,[1]; Compound 0.2 μM,6978 nmol of reduced Cytochrome C/min/μg NQO1 Protein
same,NAD+ production,[2],increased in dose-dependent manner
same,NAD+/NADH ratio,[3],increased in dose-dependent manner
CC(C)n1c(=O)c2c(n1-c1ccccc1)-c1ccccc1C(=O)C2=O [Compound 13],NQO1 Activity,[1]; Compound 0.2 μM,2137 nmol of reduced Cytochrome C/min/μg NQO1 Protein
CCn1c(=O)c2c(n1-c1ccccc1)-c1ccccc1C(=O)C2=O [Compound 7],NQO1 Activity,[1]; Compound 0.2 μM,2246 nmol of reduced Cytochrome C/min/μg NQO1 Protein
